# From patent publication US20120277171A1, “Warmi®, natural alternative for the treatment of menopause” (priority 2011, published 2012)
# Experiments:
# [1] = tested on: TNF-α, INF-y and IL-6 cytokines; assay: Clinical trial: cytokine count; assay type: in vivo, human
# Method: Peripheral blood samples were obtained in vacutainer test tubes with anticoagulant (Becton Dickenson, BD). The biological sample was previously centrifuged and stored at a −70° C. for the respective cytokine count. Type Th1: TNF-α, INF-y and Th2: IL-6 cytokines were counted. The manufacturer's instructions were followed and the cytokine concentrations were calculated according to the specifications (Pharmingen, BD). Cytokines were measured prior to and upon conclusion of the treatment.
# (§1) The levels of cytokines, osteocalcin, growth hormone and C-reactive protein were measured in the Laboratory of the Molecular Biotechnology Unit of the Research and Development Laboratories of the Universidad Peruana Cayetano Heredia (UPCH). All laboratory procedures were conducted in duplicate, standards were used to ensure the reproducibility and quality of the results.
# C-reactive protein = assay: Clinical trial: C-reactive protein (ELISA); assay type: in vivo, human; conditions: after 6 months of treatment
# Method: C-reactive protein from human plasma (Diagnostic Automation Inc., USA) was tested with a very sensitive ELISA using a monoclonal antibody against a different antigenic determinant on the C-Reactive Protein molecule, with a sensitivity of […]. C-reactive protein (CRP) was measured prior to treatment and after 6 months of treatment, according to the manufacturer's instructions.
# as §1
# human osteocalcin = assay: Clinical trial: plasma osteocalcin (EASIA); assay type: in vivo; conditions: after 6 months of treatment; FIG. 13
# Method: Plasma osteocalcin was measured through the EASIA technique (Enzyme Amplified Sensitivity Immunoassay) using monoclonal antibodies against different epitopes of human osteocalcin (Biosource International, Inc., USA), with a sensitivity of 0.4 ng/mL. Human osteocalcin was measured at the beginning of the treatment and after 6 months of treatment, according to the manufacturer's instructions.
# as §1
# [2] = tested on: triglycerides (TG), total cholesterol (TC), HDL, LDL and serum glucose levels; assay: Clinical trial: lipids and glucose count; assay type: in vivo, human
# Method: The triglycerides (TG), total cholesterol (TC), HDL, LDL and serum glucose levels (Valtek S.A.) were measured based on a peripheral blood test prior to the start of the treatment, at months 1, 3 and 6 following treatment. TG, TC and HDL levels were measured with a MicroLab semiautomatic analyzer, through an enzymatic colorimetric technique, using the manufacturer's manual and procedures. Normal values shall be TC<200 mg/dL, HDL>35 mg/dL, LDL<130 mg/dL and TG<170 mg/dL.
# [3] = tested on: symptomatic postmenopausal women; assay: Greene Climateric Scale; assay type: in vivo, human; conditions: FIGS. 31-35
# Source text: The changes are observed in sub-categories of Anxiety, Depression, Vasomotor Symptoms and Sexual Aspects.
# [4] = Clinical trial: anthropometric parameters and vital signs; assay type: in vivo, human; conditions: mean ± SD
# Method: (§2) Prospective, longitudinal, double blind, three stage, comparative clinical and laboratory evaluation trials on symptomatic postmenopausal women who attended the menopause medical units of the Hospital Nacional Cayetano Heredia, Hospital Nacional Arzobispo Loayza, Hospital Docente Madre Niño San Bartolomé and the medical unit of the Universidad Nacional Agraria La Molina.
# (§3) Warmi® capsules (510 mg) were manufactured by Laboratorios Hersil S.A. Capsules were manufactured following Good Manufacturing Practices (GMP) and following the Hazard Analysis and Critical Control Points (HACCP). Warmi® is a natural proprietary blend composed of β-sitosterol, glucosinolates and citrus flavonoids (hesperidin). […] Patients received 3 capsules a day to be taken every 6 hours.
# Tibolone was used as HRT. Tibolone was masked in a capsule with the same appearance as the previous groups. Patients received 3 capsules a day to be taken every 6 hours. Tibolone is the latest treatment for menopausal symptoms in Peru. Tibolone is a synthetic steroid with estrogenic, progestogenic and androgenic activity, used for the treatment of menopausal symptoms and post-menopausal osteoporosis. It has been observed that Tibolone reduces the level of triglycerides, HDL, total cholesterol and with no effect on the LDL.
# The sample group was integrated by symptomatic postmenopausal women who attend the menopause centers of the participating hospitals. 135 participants were accepted in the study and each hospital recruited the patients that were randomly assigned to the three treatment groups: Warmi®, Tibolone and placebo.
# The statistical analysis was done using a SPSS statistical package (version 11.0). […] The variables were analyzed as a change in relation to the basal level and compared by treatment groups.
# [5] = human, in vivo
# Method: as §2, §3
# Tibolone was used as HRT. Tibolone was masked in a capsule with the same appearance as the previous groups. Patients received 3 capsules a day to be taken every 6 hours. […]
# The statistical analysis was done using a SPSS statistical package (version 11.0). The results were expressed as a mean±standard error (SE), and a p<0.05 was considered significant. The variables were analyzed as a change in relation to the basal level and compared by treatment groups.
# There was a small decrease in the hematocrit (1.43%) of the placebo group. […] Upon observing the other quantifiable parameters, no significant changes are noticed.
# [6] = tested on: FSH, LH, estradiol, progesterone and DHEAS; assay: Clinical trial: hormone count in serum (immunochemical luminescence); assay type: in vivo, human; conditions: for reduction of FSH: FIG. 2
# Method: Laboratory tests were requested prior to the beginning of the treatments (basal levels) and after 3 and 6 months. The levels of the following hormones were measured in the Laboratory of the Molecular Biotechnology Unit of the Research and Development Laboratories of the Universidad Peruana Cayetano Heredia: FSH, LH, estradiol, progesterone and DHEAS. The following normal menopausal values shall be considered: FSH of between 25.0 and 134.8 mlU/mL, LH of between 7.7 and 58.5 mlU/mL, estradiol between <10.0 and 39.5 pg/mL and progesterone between 0.20 and 1.00 ng/mL.
# In order to determine the hormonal levels, a peripheral blood test was taken from each patient on an empty stomach and the serum FSH, LH, estradiol, progesterone and DHEAS levels were taken using the immunochemical luminescence method, following the standardized procedures of the laboratory.
structure (smiles),measurement,setting,value
C#C[C@]1(O)CC[C@H]2[C@@H]3[C@H](C)CC4=C(CCC(=O)C4)[C@H]3CC[C@@]21C [Tibolone],effect on interferon gamma (INF-y) (in words),"[1]; FIG. 16, none were significant",slight increases
same,effect on Interleukin 6 (IL-6) levels (in words),"[1]; FIG. 17, Tibolone: after 3 months alone, Warmi: after both treatment periods",significantly reduced
same,increase of CRP (change in percentage),C-reactive protein,26.83%
same,effect on osteocalcin levels (in words),human osteocalcin,significant reduction
same,effect on triglycerides levels (in words),[2]; FIG. 8,significant decrease
same,effect on HDL levels (in words),"[2]; FIG. 9, Tibolone: after 1, 3 and 6 months of treatment",significant reduction
same,effect on LDL levels (in words),[2]; FIG. 10,significant reduction
same,effect on LDL/HDL ratio (in words),"[2]; FIG. 12, Tibolone: after six months, Warmi: after both 3 and 6 months",reduction
same,reduction of total cholesterol,"[2]; after six months of treatment, FIG. 7",12.37%
same,reduction in the level of glycemia,"[2]; at the end of the study, FIG. 6",7.39%
same,"Greene survey: sub-categories Anxiety, Depression, Vasomotor Symptoms and Sexual Aspects (in words)",[3],Changes were also observed
same,Diastolic BP,[4]; 3rd Month,72.5 ± 10.83
same,Heart Rate,[4]; 3rd Month,63.66 ± 1.96
same,Pulse Pressure,[4]; 3rd Month,64 ± 1.78
same,Respiratory Rate,[4]; 3rd Month,16.33 ± 0.98
same,Systolic BP,[4]; 3rd Month,113.33 ± 8.16
same,Diastolic BP,[4]; 6th Month,73.16 ± 11.4
same,Heart Rate,[4]; 6th Month,62.67 ± 2.42
same,Pulse Pressure,[4]; 6th Month,62.67 ± 2.42
same,Systolic BP,[4]; 6th Month,110 ± 8.98
same,Respiratory Rate,"[4]; 6th Month, *p ≦ 0.05",16.16 ± 0.41
same,increase in the hematocrit,[5],3.53%
same,reduction of FSH,[6]; month six of treatment,16.20%
same,reduction of FSH,[6]; month three of treatment,29.58%
same,drop of DHEAS in serum,"[6]; month three, FIG. 3",12.87%
same,decrease of progesterone,"[6]; month three, FIG. 4",29.70%
